Strand notation (5' to 3'): a small letter for the sugar, then the base; units joined by * are phosphorothioate-linked, units joined directly phosphodiester-linked; [ ] holds rarer units or linkages, { } end groups; capitals alone tell only the bases. [PALM-N] = nucleoside bearing a 2'-(butylacetamido)-palmitamide (C16 palmitic acid) substituent (N: the base); e = 2'-O-(2-methoxyethyl) (MOE); l = locked nucleic acid (LNA); [5mC] = 5-methylcytosine; d = 2'-deoxy (DNA)
How the values were obtained:
[1] = Transaminase levels, liver and spleen weights, body weight (Example 6, Table 47); assay type: in vivo, mouse; details: 8 μmol/kg single i.p.; 72 h; Balb/c mice
From the text: (§1) Each dose group consisted of four animals. Shown in Table 46 are the sequences and motifs of the PTEN antisense compounds used in this study. Bolded residues indicate 2′-O-methoxyethyl moieties (2′-MOE) and italicized residues indicate Methyleneoxy BNA nucleotides. Each antisense compound comprises phosphorothioate linkages throughout. In addition, the cytosine residues in the gap of ISIS 384073 and in the wings of ISIS 392056, ISIS 392057, ISIS 392061 and ISIS 392063 are replaced with 5-methylcytosines. Antisense compounds target published PTEN nucleic acids, including Genbank Accession No. U92437.1 (SEQ ID NO: 13).
(§2) Mice were sacrificed 72 hours following injection to determine serum transaminase levels (Table 47); liver and spleen weights (Table 47); and PTEN mRNA levels in liver, kidney and fat (Table 48), according to procedures described herein and well know to one of ordinary skill in the art.

PTEN mRNA = PTEN mRNA levels in liver, kidney and fat, Balb/c mice, single 8 μmol/kg i.p. (Example 6, Table 48); assay type: in vivo, mouse; details: 8 μmol/kg single i.p., 72 h, saline = 100
From the text: as §1, §2

mouse SGLT2 mRNA [2] = assay: Mouse SGLT2 mRNA levels in kidney, MOE versus Methyleneoxy BNA gapmers, Balb/c mice (Example 15, Table 69); assay type: in vivo
Protocol: The effect of ISIS 379692 1-10-1 MOE gapmer and ISIS 388625 2-8-2 MOE gapmer are compared with the effect of ISIS 392170 1-10-1 Methyleneoxy BNA Gapmer and ISIS 392173 2-8-2 Methyleneoxy BNA Gapmer (see Table 69) on mouse SGLT2 mRNA levels in vivo. Data are taken from three experiments in which male 6-week old Balb/c mice were dosed twice per week for three weeks with 5, 25 and 125 nmol/kg of either the ISIS 379692 1-10-1 MOE gapmer or the ISIS 388625 2-8-2 MOE gapmer given by intraperitoneal injection. Mice were sacrificed 48 hours following last administration and evaluated for SGLT2 mRNA levels in kidney. Target levels were determined by RT, real-time PCR as described by other examples herein. PCR results were normalized to an internal ISIS control. The data are expressed as percent change (“+” indicates an increase, “−” indicates a decrease) relative to saline treated animals and are illustrated in Table 69.

[3] = Plasma glucose in ZDF rats, once a week for twelve weeks (Example 16, Table 71); assay type: in vivo, rat
Protocol: (§3) ISIS 388625, 388626 and control oligo ISIS 388628 were analyzed for their effect on ZDF rat plasma glucose levels and HbA1c. The leptin receptor deficient Zucker diabetic fatty (ZDF) rat is a useful model for the investigation of type 2 diabetes. Diabetes develops spontaneously in these male rats at ages 8-10 weeks, and is associated with hyperphagia, polyuria, polydipsia, and impaired weight gain, symptoms which parallel the clinical symptoms of diabetes (Phillips M S, et al., 1996, Nat Genet. 13, 18-19). Six week old ZDF rats were injected intraperitoneally with short antisense compound at a dose of 400 nM/kg once a week for twelve weeks. Data are illustrated in Tables 71 and 72.

mouse SGLT2 mRNA [4] = assay: Mouse SGLT2 mRNA levels in kidney, additional 1-10-1 and 2-8-2 MOE gapmers, Balb/c mice (Example 15, Table 68); assay type: in vivo
Protocol: 1-10-1 and 2-8-2 MOE gapmer short antisense compounds were designed to target different regions of the mouse SGLT2 RNA but have complementarity across species. […] All cytidine residues are 5-methylcytidines.
The short antisense compounds were analyzed for their effect on mouse SGLT2 mRNA levels in vivo. Data was taken from three experiments in which male 6-week old Balb/c mice were dosed twice per week for three weeks with 0.5, 0.1, or 0.02 umol/kg of either a 1-10-1 or 2-8-2 MOE gapmer given by intraperitoneal injection. Mice were sacrificed 48 hours following last administration and evaluated for SGLT2 levels in kidney. Target levels were determined by RT, real-time PCR as described by other examples herein. PCR results were normalized to an internal ISIS control.

[5] = HbA1c status in ZDF rats (Example 16, Table 72); assay type: in vivo, rat; details: for Percentage HbA1c on specific dates, Day 40 / Percentage HbA1c on specific dates, Day 55 / Percentage HbA1c on specific dates, Day 68: 400 nM/kg i.p. once a week for twelve weeks; for Percentage HbA1c on specific dates, Day 40: Day 40, p < 0.001; for Percentage HbA1c on specific dates, Day 55: Day 55, p < 0.001; for Percentage HbA1c on specific dates, Day 68: Day 68, p < 0.001
Protocol: as §3

ApoB mRNA = ApoB mRNA in liver of Balb/c mice, palmitic acid conjugates, single i.p. dose, with ED50 (Example 30, Table 95); assay type: in vivo, mouse; details: for % Inhib: Balb/c mice, about 48 hours after dose, relative to saline-treated controls
Protocol: 0.4, and 0.16 umol/kg. Each dose group consisted of four animals. A 5-10-5 MOE gapmer was used for a control treatment. Mice were sacrificed approximately 48 hours following the final dose. Liver tissue was collected for RNA isolation, and blood was collected for serum chemistry analyses. ApoB mRNA levels were measured by real-time PCR as described herein. ApoB mRNA levels were normalized to RNA levels as determined by RIBOGREEN, and are presented in Table 95 as percent inhibition relative to ApoB mRNA levels in saline-treated control animals.
At the 2.5 umol/kg dose, ApoB inhibition by the short antisense compounds was greater than observed with a 5-10-5 MOE gapmer at an equivalent dose. […] Triglycerides were reduced at the 2.5 and […] doses of ISIS 387462 and ISIS 391872.

[6] = 5 nmol/kg i.p. twice per week for three weeks
[7] = 25 nmol/kg i.p. twice per week for three weeks
[8] = 125 nmol/kg i.p. twice per week for three weeks
[9] = Day 10, 400 nM/kg i.p. once a week for twelve weeks
[10] = Day 40, 400 nM/kg i.p. once a week for twelve weeks
[11] = Day 55, 400 nM/kg i.p. once a week for twelve weeks
[12] = Day 66, 400 nM/kg i.p. once a week for twelve weeks
[13] = compared to PBS and control treated animals

Substance: 141923 (antisense CCTTCCCTGAAGGTTCCTCC; sugars from the 5' end e5 d10 e5, all phosphorothioate, methylation of C not given here) [compound 141923]
- ALT [1]: 34.8 IU/L
- AST [1]: 89.5 IU/L
- Liver Weight [1]: 101 % Saline
- Spleen Weight [1]: 108 % Saline
- % PTEN mRNA levels in Fat (PTEN mRNA): 118%
- % PTEN mRNA levels in Kidney (PTEN mRNA): 133%
- % PTEN mRNA levels in Liver (PTEN mRNA): 102%

Substance: ISIS 392170: SGLT2; 1-10-1 Methyleneoxy BNA Gapmer (antisense lT*dG*dT*dT*d[5mC]*d[5mC]*dA*dG*d[5mC]*d[5mC]*d[5mC]*lA)
- SGLT2 mRNA, percent change relative to saline treated animals (mouse SGLT2 mRNA [2]; [6]): −23 percent change
- SGLT2 mRNA, percent change relative to saline treated animals (mouse SGLT2 mRNA [2]; [7]): −54 percent change
- SGLT2 mRNA, percent change relative to saline treated animals (mouse SGLT2 mRNA [2]; [8]): −69 percent change

Substance: 392061 (antisense l[5mC]*lT*dA*dG*dC*dC*dT*dC*dT*dG*dG*dA*lT*lT) [compound 392061]
- ALT [1]: 42.0 IU/L
- AST [1]: 189 IU/L
- Liver Weight [1]: 123 % Saline
- Spleen Weight [1]: 111 % Saline
- % PTEN mRNA levels in Fat (PTEN mRNA): 85%
- % PTEN mRNA levels in Kidney (PTEN mRNA): 61%
- % PTEN mRNA levels in Liver (PTEN mRNA): 24%

Substance: 391172 (antisense lC*lT*dA*dG*dC*dC*dT*dC*dT*dG*dG*dA*lT*lT*lT) [compound 391172]
- ALT [1]: 32.8 IU/L
- AST [1]: 48.5 IU/L
- Liver Weight [1]: 120 % Saline
- Spleen Weight [1]: 112 % Saline
- % PTEN mRNA levels in Fat (PTEN mRNA): 101%
- % PTEN mRNA levels in Kidney (PTEN mRNA): 63%
- % PTEN mRNA levels in Liver (PTEN mRNA): 18%

Substance: ISIS 388626: SGLT2; GGCATGAGCTTC 2-8-2 MOE (antisense eG*eG*d[5mC]*dA*dT*dG*dA*dG*d[5mC]*dT*eT*e[5mC])
- Plasma glucose levels [3, 9]: 434.7 mg/dL
- Plasma glucose levels [3, 10]: 300.5 mg/dL
- Plasma glucose levels [3, 11]: 219.8 mg/dL
- Plasma glucose levels [3, 12]: 379.8 mg/dL
- Plasma glucose levels [3, 13]: significantly reduced
- % change in SGLT2 expression relative to saline (mouse SGLT2 mRNA [4]; 0.02 umol/kg i.p. twice per week for three weeks): −45%
- % change in SGLT2 expression relative to saline (mouse SGLT2 mRNA [4]; 0.1 umol/kg i.p. twice per week for three weeks): −60%
- % change in SGLT2 expression relative to saline (mouse SGLT2 mRNA [4]; 0.5 umol/kg i.p. twice per week for three weeks): −80%
- Percentage HbA1c on specific dates, Day 40 [5]: 6.6%
- Percentage HbA1c on specific dates, Day 55 [5]: 5.9%
- Percentage HbA1c on specific dates, Day 68 [5]: 4.0%
- HbA1C [5, 13]: significantly reduced

Substance: 384073 (antisense lG*lC*lT*dA*dG*d[5mC]*d[5mC]*dT*d[5mC]*dT*dG*dG*dA*lT*lT*lT) [compound 384073]
- ALT [1]: 29.3 IU/L
- AST [1]: 57.8 IU/L
- Liver Weight [1]: 115 % Saline
- Spleen Weight [1]: 111 % Saline
- % PTEN mRNA levels in Fat (PTEN mRNA): 77%
- % PTEN mRNA levels in Kidney (PTEN mRNA): 74%
- % PTEN mRNA levels in Liver (PTEN mRNA): 24%

Substance: 388625 (antisense eT*eG*dT*dT*d[5mC]*d[5mC]*dA*dG*d[5mC]*d[5mC]*e[5mC]*eA) [compound 388625]
- Plasma glucose levels [3, 9]: 435.5 mg/dL
- Plasma glucose levels [3, 10]: 278.7 mg/dL
- Plasma glucose levels [3, 11]: 213.8 mg/dL
- Plasma glucose levels [3, 12]: 325.5 mg/dL
- Percentage HbA1c on specific dates, Day 40 [5]: 6.5%
- Percentage HbA1c on specific dates, Day 55 [5]: 5.8%
- Percentage HbA1c on specific dates, Day 68 [5]: 4.3%

Substance: ISIS 392173: SGLT2; 2-8-2 Methyleneoxy BNA Gapmer (antisense lT*lG*dT*dT*d[5mC]*d[5mC]*dA*dG*d[5mC]*d[5mC]*l[5mC]*lA)
- SGLT2 mRNA, percent change relative to saline treated animals (mouse SGLT2 mRNA [2]; [6]): −44 percent change
- SGLT2 mRNA, percent change relative to saline treated animals (mouse SGLT2 mRNA [2]; [7]): −57 percent change
- SGLT2 mRNA, percent change relative to saline treated animals (mouse SGLT2 mRNA [2]; [8]): −75 percent change

Substance: 391871 (antisense [PALM-G]*eG*dT*dA*dC*dA*dT*dG*dG*dA*dA*dG*eT*e[5mC]) [compound 391871]
- % Inhib (ApoB mRNA; single i.p. dose 0.16 umol/kg): 0%
- % Inhib (ApoB mRNA; single i.p. dose 0.4 umol/kg): 5%
- % Inhib (ApoB mRNA; single i.p. dose 1.0 umol/kg): 18%

Substance: 388628 (antisense eT*eA*dG*d[5mC]*d[5mC]*dG*d[5mC]*d[5mC]*d[5mC]*dA*e[5mC]*eA) [compound 388628]
- Plasma glucose levels [3, 9]: 436.0 mg/dL
- Plasma glucose levels [3, 10]: 502.0 mg/dL
- Plasma glucose levels [3, 11]: 411.2 mg/dL
- Plasma glucose levels [3, 12]: 668.8 mg/dL
- Percentage HbA1c on specific dates, Day 40 [5]: 8.0%
- Percentage HbA1c on specific dates, Day 55 [5]: 9.1%
- Percentage HbA1c on specific dates, Day 68 [5]: 7.8%

Substance: 391872 (antisense [PALM-G]*lG*dT*dA*dC*dA*dT*dG*dG*dA*dA*dG*lT*l[5mC]) [compound 391872]
- % Inhib (ApoB mRNA; single i.p. dose 0.16 umol/kg): 18%
- % Inhib (ApoB mRNA; single i.p. dose 0.4 umol/kg): 50%
- % Inhib (ApoB mRNA; single i.p. dose 1.0 umol/kg): 92%

Substance: ISIS 391871: ApoB; GGTACATGGAAGTC 1-1-10-2 2′-(butylacetomido)-palmitamide/MOE/MOE Unmodified cytosines in gap (antisense [PALM-G]*eG*dT*dA*dC*dA*dT*dG*dG*dA*dA*dG*eT*e[5mC])
- estimated ED50 (ApoB mRNA; single i.p. injection): 13.1 mg/kg
